Patent publication US10266497B2 (ABIDE THERAPEUTICS, INC., priority 2017, dated 2019)

Legend:
MAGL [1] = target: T1, MAGL (Mus musculus, UniProt O35678); experiment: In vitro competitive activity-based protein profiling, MAGL, mouse; details: read-out: MAGL % inh. 1 μM (mouse)
T1 sequence (O35678 1-303): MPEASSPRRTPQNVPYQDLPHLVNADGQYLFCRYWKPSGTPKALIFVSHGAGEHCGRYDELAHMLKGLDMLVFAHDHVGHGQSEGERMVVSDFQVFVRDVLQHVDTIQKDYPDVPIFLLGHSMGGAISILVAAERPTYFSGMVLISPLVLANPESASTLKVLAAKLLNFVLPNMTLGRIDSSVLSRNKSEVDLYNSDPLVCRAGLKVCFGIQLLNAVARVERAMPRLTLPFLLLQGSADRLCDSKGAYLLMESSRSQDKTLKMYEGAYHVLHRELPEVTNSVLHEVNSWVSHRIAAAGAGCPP

MAGL [2] = target: T2, MAGL (Homo sapiens, UniProt Q99685); experiment: In vitro competitive activity-based protein profiling, MAGL, human; details: for inhibition at 1 µM: read-out: MAGL % inh. 1 μM (human)
T2 sequence (Q99685 1-303): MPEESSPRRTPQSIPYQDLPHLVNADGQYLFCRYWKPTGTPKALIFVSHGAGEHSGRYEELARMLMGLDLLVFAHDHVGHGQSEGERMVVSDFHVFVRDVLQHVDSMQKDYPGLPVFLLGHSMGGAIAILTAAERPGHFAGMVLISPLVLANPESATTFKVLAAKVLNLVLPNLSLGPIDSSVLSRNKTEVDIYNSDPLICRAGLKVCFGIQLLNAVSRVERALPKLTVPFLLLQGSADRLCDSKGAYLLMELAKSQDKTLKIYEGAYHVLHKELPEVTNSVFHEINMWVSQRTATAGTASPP

SMILES	inhibition at 1 µM (MAGL [1]) [%]	inhibition at 1 µM (MAGL [2]) [%]	inhibition at 10 µM (MAGL [2]; read-out: MAGL % inh. (human) at 10 uM) [%]
C[C@H]1CN(Cc2cccc(Oc3cc(C(F)(F)F)ccn3)c2)CCN1C(=O)n1ccc(C(=O)O)n1 [Example 373, (S)-1-(2-methyl-4-(3-((4-(trifluoromethyl)pyridin-2-yl)oxy)benzyl)piper-azine-1-carbonyl)-1H-pyrazole-3-carboxylic acid]	> 75	> 75	–
O=C(O)c1ccn(C(=O)N2CCN(Cc3ccc(C(F)(F)F)cc3N3CC4CCC(C3)O4)CC2)n1 [Example 380, 1-(4-(2-(8-oxa-3-azabicylco[3.2.1]octan-3-yl)-4-(trifluoromethyl)benzyl)piperazine-1-carbonyl)-1H-pyrazole-3-carboxylic acid]	> 75	> 75	–
CN(Cc1ccc(N2CCCC2)c(C(F)(F)F)c1)C1(C)CCN(C(=O)n2ccc(C(=O)O)n2)CC1 [Example 383, 1-(4-methyl-4-(methyl(4-(pyrrolidin-1-yl)-3-(trifluoromethyl)benzyl)amino)piper-idine-1-carbonyl)-1H-pyrazole-3-carboxylic acid]	> 75	> 75	–
NC(=O)c1ccn(C(=O)N2CCC3(CCCN3C(=O)c3cc4ccc(C(F)(F)F)cc4s3)CC2)n1 [Example 389, 1-(1-(6-(trifluoromethyl)benzo[b]thiophene-2-carbonyl)-1,8-diazaspiro[4.5]decane-8-carbonyl)-1H-pyrazole-3-carboxamide]	> 75	> 75	–
O=C(O)c1ccn(C(=O)N2CCC3(CCN(Cc4cc(N5CCCC5)ccc4C(F)(F)F)C3)CC2)n1 [Example 391, 1-(2-(5-(pyrrolidin-1-yl)-2-(trifluoromethyl)benzyl)-2,8-diazaspiro[4.5]decane-8-carbonyl)-1H-pyrazole-3-carboxylic acid]	> 75	> 75	–
NC(=O)c1ccn(C(=O)N2CC3CN(Cc4ccc(C5(O)CCOCC5)cc4C(F)(F)F)CC3C2)n1 (stereo not shown) [Example 396]	> 75	> 75	–
O=C(O)c1ccn(C(=O)N2CCC3(CCN(Cc4ccc(N5CC6COCC6C5)cc4Cl)C3)CC2)n1 (stereo not shown) [Example 400, 1-(2-(2-chloro-4-(tetrahydro-1H-furo[3,4-c]pyrrol-5(3H)-yl)benzyl)-2,8-diazaspiro[4.5]decane-8-carbonyl)-1H-pyrazole-3-carboxylic acid]	0 to 25	–	> 75
O=C(O)c1nn(C(=O)N2CCN(Cc3cc(F)cc(Oc4ccc(Cl)cc4)c3)CC2)cc1C(F)(F)F [Example 408]	> 75	> 75	–
O=C(O)c1ccn(C(=O)N2CCC3(CCCN3Cc3ccc(C(F)(F)F)cc3N3CC4COCC4C3)CC2)n1 (stereo not shown) [Example 415, 1-(1-(2-(tetrahydro-1H-furo[3,4-c]pyrrol-5(3H)-yl)-4-(trifluoromethyl)benzyl)-1,8-diazaspiro[4.5]decane-8-carbonyl)-1H-pyrazole-3-carboxylic acid]	> 75	> 75	–
O=C(O)c1ccn(C(=O)N2CCC3(CCCN3Cc3ccc(C(F)(F)F)cc3N3CCN4CCC[C@@H]4C3)CC2)n1 [Example 417, (R)-1-(1-(2-(hexahydropyrrolo[1,2-a]pyrazin-2(1H)-yl)-4-(trifluoromethyl)benzyl)-1,8-diazaspiro[4.5]decane-8-carbonyl)-1H-pyrazole-3-carboxylic acid]	0 to 25	25 to 50	–
CC(C)(O)COc1cccc(O[C@H]2C[C@@H]3CN(C(=O)n4ccc(C(N)=O)n4)C[C@@H]3C2)c1Cl [Example 452, 1-(trans-5-(2-chloro-3-(2-hydroxy-2-methylpropoxy)phenoxy)octahydro-cyclopenta[c]pyrrole-2-carbonyl)-1H-pyrazole-3-carboxamide]	> 75	> 75	–
NC(=O)c1ccn(C(=O)N2CCN(Cc3cccc(C4(C(=O)O)CCOCC4)c3)CC2)n1 [Example 455, 4-(3-((4-(3-carbamoyl-1H-pyrazole-1-carbonyl)piperazin-1-yl)methyl)phenyl) tetrahydro-2H-pyran-4-carboxylic acid]	> 75	> 75	–

Results, then the molecule that gave them:

inhibition at 1 µM (MAGL [1]) [%]	inhibition at 1 µM (MAGL [2]) [%]	inhibition at 10 µM (MAGL [2]; read-out: MAGL % inh. (human) at 10 uM) [%]	SMILES
25 to 50	0 to 25	–	O=C(O)c1ccn(C(=O)N2CCC3(CCN(Cc4ccc(Cl)c(N5CCOCC5)c4)C3)CC2)n1 [Example 372, 1-(2-(4-chloro-3-morpholinobenzyl)-2,8-diazaspiro[4.5]decane-8-carbonyl)-1H-pyrazole-3-carboxylic acid]
> 75	> 75	–	C[C@@H]1CN(Cc2cccc(Oc3cc(C(F)(F)F)ccn3)c2)CCN1C(=O)n1ccc(C(=O)O)n1 [Example 374, (R)-1-(2-methyl-4-(3-((4-(trifluoromethyl)pyridin-2-yl)oxy)benzyl)piper-azine-1-carbonyl)-1H-pyrazole-3-carboxylic acid]
0 to 25	0 to 25	–	NC(=O)c1ccn(C(=O)N2CCC3(CCN(Cc4cc5ccc(C(F)(F)F)cc5s4)C3)CC2)n1 [Example 377, 1-(2-((6-(trifluoromethyl)benzo[b]thiophen-2-yl)methyl)-2,8-diazaspiro[4.5]decane-8-carbonyl)-1H-pyrazole-3-carboxamide]
> 75	> 75	–	O=C(O)c1nn(C(=O)N2CCN(Cc3cc(F)cc(Oc4ccc(Cl)cc4)c3)CC2)cc1Cl [Example 378, 4-chloro-1-(4-(3-(4-chlorophenoxy)-5-fluorobenzyl)piper-azine-1-carbonyl)-1H-pyrazole-3-carboxylic acid]
> 75	> 75	–	O=C(O)c1ccn(C(=O)N2CCN(Cc3ccc(N4CC5COCC5C4)cc3C(F)(F)F)CC2)n1 (stereo not shown) [Example 379, 1-(4-(4-(tetrahydro-1H-furo[3,4-c]pyrrol-5(3H)-yl)-2-(trifluoromethyl)benzyl)piperazine-1-carbonyl)-1H-pyrazole-3-carboxylic acid]
> 75	50 to 75	–	Cc1cc(-c2cccc(S(C)(=O)=O)c2)ccc1CN1CCN(C(=O)n2ccc(C(=O)O)n2)[C@H](C)C1 [Example 386, (R)-1-(2-methyl-4-((3-methyl-3′-(methylsulfonyl)-[1,1′-biphenyl]-4-yl)methyl)piperazine-1-carbonyl)-1H-pyrazole-3-carboxylic acid]
> 75	> 75	–	Cc1cn(C(=O)N2CCC(C)(N(C)Cc3ccc(C(F)(F)F)cc3N3CCCC3)CC2)nc1C(=O)O [Example 398]
> 75	> 75	–	O=C(O)c1nn(C(=O)N2CCN(Cc3cccc(Oc4cc(C(F)(F)F)ccn4)c3)CC2)cc1Cl [Example 399, 4-chloro-1-(4-(3-((4-(trifluoromethyl)pyridin-2-yl)oxy)benzyl)piper-azine-1-carbonyl)-1H-pyrazole-3-carboxylic acid]
0 to 25	25 to 50	–	O=C(O)c1ccn(C(=O)N2CCC3(CCN(Cc4ccc(Cl)c(N5CC6COCC6C5)c4)C3)CC2)n1 (stereo not shown) [Example 401, 1-(2-(4-chloro-3-(tetrahydro-1H-furo[3,4-c]pyrrol-5(3H)-yl)benzyl)-2,8-diazaspiro[4.5]decane-8-carbonyl)-1H-pyrazole-3-carboxylic acid]
> 75	> 75	–	O=C(O)c1ccn(C(=O)N2CCC3(CCCN3Cc3ccc(C(F)(F)F)cc3N3CCOCC3)CC2)n1 [Example 405, 1-(1-(2-morpholino-4-(trifluoromethyl)benzyl)-1,8-diazaspiro[4.5]decane-8-carbonyl)-1H-pyrazole-3-carboxylic acid]
> 75	> 75	–	O=C(O)c1nn(C(=O)N2CCN(Cc3cccc(Oc4cc(C(F)(F)F)ccn4)c3)CC2)cc1C(F)(F)F [Example 414, 4-(trifluoromethyl)-1-(4-(3-((4-(trifluoromethyl)pyridin-2-yl)oxy)benzyl)piper-azine-1-carbonyl)-1H-pyrazole-3-carboxylic acid]
> 75	> 75	–	O=C(O)c1ccn(C(=O)N2CCC3(CCCN3Cc3ccc(C(F)(F)F)cc3N3CC4CCC(C3)O4)CC2)n1 [Example 416, 1-(1-(2-(8-oxa-3-azabicyclo[3.2.1]octan-3-yl)-4-(trifluoromethyl)benzyl)-1,8-diazaspiro[4.5]decane-8-carbonyl)-1H-pyrazole-3-carboxylic acid]
0 to 25	25 to 50	–	O=C(O)c1ccn(C(=O)N2CCC3(CCCN3Cc3ccc(C(F)(F)F)cc3N3CCN4CCC[C@H]4C3)CC2)n1 [Example 418, (S)-1-(1-(2-(hexahydropyrrolo[1,2-a]pyrazin-2(1H)-yl)-4-(trifluoromethyl)benzyl)-1,8-diazaspiro[4.5]decane-8-carbonyl)-1H-pyrazole-3-carboxylic acid]
> 75	> 75	–	C[C@H]1CN(Cc2cccc(OCC(C)(C)O)c2Cl)CCN1C(=O)n1ccc(C(N)=O)n1 [Example 450, (S)-1-(4-(2-chloro-3-(2-hydroxy-2-methylpropoxy)benzyl)-2-methylpiperazine-1-carbonyl)-1H-pyrazole-3-carboxamide]
